In US20110183848A1, “Piperazine Compounds With Herbicidal Effect” (BASF SE, priority 2008, published 2011):

How the values were obtained:
SETIT = test: greenhouse test, post-emergence treatment; format: in vivo, Setaria italica; settings: application rate 1.0 kg/ha, scale 0 to 100
Text: (§1) The culture containers used were plastic flowerpots containing loamy sand with approximately 5.8% of humus as the substrate. The seeds of the test plants were sown separately for each species.
(§2) For the post-emergence treatment, the test plants were first grown to a height of 3 to 15 cm, depending on the plant habit, and then treated with the active compounds which had been suspended or emulsified in water. For this purpose, the test plants were either sown directly and grown in the same containers, or they were first grown separately as seedlings and transplanted into the test containers a few days prior to treatment.
(§3) Depending on the species, the plants were kept at 10-25° C. or 20-35° C. The test period extended over 2 to 4 weeks. During this time, the plants were tended, and their response to the individual treatments was evaluated.
(§4) Evaluation was carried out using a scale from 0 to 100. 100 means no emergence of the plants, or complete destruction of at least the aerial moieties, and 0 means no damage, or normal course of growth. A good herbicidal activity is given at values of at least 70 and a very good herbicidal activity is given at values of at least 85.
(§5) The plants used in the greenhouse experiments belonged to the following species: […]

ECHCG = test: greenhouse test, post-emergence treatment; format: in vivo, Echinochloa crus-galli; settings: application rate 1.0 kg/ha, scale 0 to 100
Text: as §1, §2, §3, §4, §5

CHEAL = test: greenhouse test, post-emergence treatment; format: in vivo, Chenopodium album; settings: application rate 0.5 kg/ha, scale 0 to 100
Text: as §1, §2, §3, §4, §5

SETFA [1] = test: greenhouse test, post-emergence treatment; format: in vivo, Setaria faberi; settings: application rate 1.0 kg/ha, scale 0 to 100
Text: as §1, §2, §3, §4, §5

ALOMY = test: active compound combinations, pre-emergence greenhouse test (Colby synergy); format: in vivo, Alopecurus myosuroides
Text: as §1
(§6) For the pre-emergence treatment, the active compounds, which had been suspended or emulsified in water, were applied directly after sowing by means of finely distributing nozzles. The containers were irrigated gently to promote germination and growth and subsequently covered with transparent plastic hoods until the plants had rooted. This cover caused uniform germination of the test plants, unless this has been impaired by the active compounds.
(§7) The respective stated components A and B were formulated as a 5% by weight strength or 10% by weight strength emulsion concentrate, or a commercial formulation of component B was used, and, with addition of the amount of solvent system, introduced into the spray liquor used for applying the active compound. In the examples, the solvent used was water.
(§8) The test period extended over 20 or 21 days. During this time, the plants were tended, and their reactions to the treatments with the active compounds were monitored.
(§9) In the examples below, using the method of S. R. Colby (1967) “Calculating synergistic and antagonistic responses of herbicide combinations”, Weeds 15, p. 22ff., the value E, which is expected when the activity of the individual active compounds is only additive, was calculated.
(§10) If the value determined experimentally is higher than the value E calculated according to Colby, a synergistic effect is present.
(§11) Here, a.s.=active substance, based on 100% active compound. In the use examples 15 and 16, the values E calculated according to Colby are stated in brackets) ( ).
(§12) What was evaluated was the damage by the chemical compositions using a scale of from 0 to 100%, in comparison to the untreated control plants. 0 means no damage, and 100 means complete destruction of the plants.

SETFA [2] = test: as above; format: in vivo, Setaria faberi
Text: as §1, §6, §7, §8, §9, §10, §11, §12

LOLMU = test: as above; format: in vivo, Lolium multiflorum
Text: as §1, §6, §7, §8, §9, §10, §11, §12

[3] = use example 14, application rate a.s. 31.25 g/ha
[4] = use example 14, application rate a.s. 62.5 g/ha
[5] = use example 14, application rate a.s. 125 g/ha
[6] = use example 14, application rate a.s. 250 g/ha
[7] = use example 14, application rate a.s. 3.12 g/ha
[8] = use example 14, application rate a.s. 12.5 g/ha
[9] = use example 14, application rate a.s. 25 g/ha

C=CCCN1C(=O)C(=Cc2ccccc2C#N)N(C)C(=O)C1(C)Cc1ccccc1 (stereo not drawn) [I-19]
herbicidal activity against SETIT (SETIT): very good (a very good herbicidal activity is given at values of at least 85) | herbicidal activity against ECHCG (ECHCG): very good (a very good herbicidal activity is given at values of at least 85)

CCCCCN1C(=O)C(=Cc2ccccc2C#N)N(C)C(=O)C1(C)Cc1ccccc1 (stereo not drawn) [I-21]
herbicidal activity against CHEAL (CHEAL): very good (a very good herbicidal activity is given at values of at least 85)

CN1C(=O)C(C)(Cc2ccccc2)N(CC2CC2)C(=O)C1=Cc1ccccc1C#N (stereo not drawn) [I-25]
herbicidal activity against SETFA (SETFA [1]): very good (a very good herbicidal activity is given at values of at least 85)

CCOc1ncccc1CC1C(=O)N(COC)C(C)(Cc2ccccc2)C(=O)N1C (stereo not drawn) [II-26]
Herbicidal activity in % after 20 days against ALOMY (ALOMY; [3]): 30% | Herbicidal activity in % after 20 days against ALOMY (ALOMY; [4]): 60% | Herbicidal activity in % after 20 days against ALOMY (ALOMY; [5]): 90% | Herbicidal activity in % after 20 days against ALOMY (ALOMY; [6]): 95% | Herbicidal activity in % after 20 days against SETFA (SETFA [2]; [3]): 10% | Herbicidal activity in % after 20 days against SETFA (SETFA [2]; [5]): 75% | Herbicidal activity in % after 20 days against SETFA (SETFA [2]; [6]): 100% | Herbicidal activity in % after 20 days against LOLMU (LOLMU; [3]): 0% | Herbicidal activity in % after 20 days against LOLMU (LOLMU; [4]): 15% | Herbicidal activity in % after 20 days against LOLMU (LOLMU; [5]): 98%

CCNc1nc(Cl)nc(NC(C)C)n1 [atrazine]
Herbicidal activity in % after 20 days against ALOMY (ALOMY; application rate a.s. 125 g/ha): 35% | Herbicidal activity in % after 20 days against ALOMY (ALOMY; application rate a.s. 250 g/ha): 65% | Herbicidal activity in % after 20 days against LOLMU (LOLMU; application rate a.s. 125 g/ha): 0% | Herbicidal activity in % after 20 days against LOLMU (LOLMU; application rate a.s. 250 g/ha): 20%

Cn1nc(C(F)(F)F)c(CS(=O)(=O)C2=NOC(C)(C)C2)c1OC(F)F [pyroxasulfone]
Herbicidal activity in % after 20 days against ALOMY (ALOMY; [7]): 25% | Herbicidal activity in % after 20 days against ALOMY (ALOMY; [8]): 95% | Herbicidal activity in % after 20 days against ALOMY (ALOMY; [9]): 95% | Herbicidal activity in % after 20 days against SETFA (SETFA [2]; [7]): 0% | Herbicidal activity in % after 20 days against SETFA (SETFA [2]; use example 14, application rate a.s. 6.25 g/ha): 25% | Herbicidal activity in % after 20 days against SETFA (SETFA [2]; [9]): 95% | Herbicidal activity in % after 20 days against LOLMU (LOLMU; [7]): 15% | Herbicidal activity in % after 20 days against LOLMU (LOLMU; [8]): 75% | Herbicidal activity in % after 20 days against LOLMU (LOLMU; [9]): 80%
